In ChEMBL document CHEMBL1127993, “4-[5-(2,3-dihydroxyphenyl)pentyloxy]-2-hydroxy-3-propylbenzoic acid (Ro 24-0553): an orally active 5-lipoxygenase inhibitor with antiinflammatory activity” (Bioorg Med Chem Lett, 1994):
The source made the active and inactive calls. The rule behind the calls is not given here.

Legend:
[1] = molecular target: T1, Polyunsaturated fatty acid 5-lipoxygenase (Rattus norvegicus, UniProt P12527); experiment: Inhibition of 5-lipoxygenase from rat basophilic leukemia(RBL-1) cells; format: cell-based
T1 sequence (P12527 whole entry): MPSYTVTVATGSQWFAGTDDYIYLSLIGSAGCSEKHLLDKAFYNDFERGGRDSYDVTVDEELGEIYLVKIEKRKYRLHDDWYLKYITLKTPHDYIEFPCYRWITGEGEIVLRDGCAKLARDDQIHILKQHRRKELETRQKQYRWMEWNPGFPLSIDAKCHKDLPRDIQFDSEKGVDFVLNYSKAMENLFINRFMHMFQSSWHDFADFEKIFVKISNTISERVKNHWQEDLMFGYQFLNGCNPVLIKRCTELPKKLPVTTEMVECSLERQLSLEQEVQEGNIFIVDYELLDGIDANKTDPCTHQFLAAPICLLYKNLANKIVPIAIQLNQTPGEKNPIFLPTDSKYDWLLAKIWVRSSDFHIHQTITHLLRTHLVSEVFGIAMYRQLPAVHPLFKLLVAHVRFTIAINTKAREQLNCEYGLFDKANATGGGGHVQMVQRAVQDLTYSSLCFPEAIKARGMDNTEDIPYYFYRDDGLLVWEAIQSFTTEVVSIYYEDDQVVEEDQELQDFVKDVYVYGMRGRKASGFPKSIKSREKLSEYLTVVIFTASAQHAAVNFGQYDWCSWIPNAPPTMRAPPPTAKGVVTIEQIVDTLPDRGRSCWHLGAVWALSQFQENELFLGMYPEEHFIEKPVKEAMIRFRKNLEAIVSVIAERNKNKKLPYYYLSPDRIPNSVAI

Rattus norvegicus [2] = species: Rattus norvegicus; experiment: Inhibitory activity against peroxidation of rat cardiac membrane liposomes at 1 uM concentration; format: functional; settings: Microsome
Rattus norvegicus [3] = species: Rattus norvegicus; experiment: Inhibitory activity against peroxidation of rat cardiac membrane liposomes; format: functional
Rattus norvegicus [4] = experiment: In vivo inhibitory activity against acetic acid-induced colitis of rat at 10 mg/kg upon peroral administration; format: functional; settings: route oral
Homo sapiens [5] = species: Homo sapiens; experiment: Inhibitory activity against interleukin-1 production by LPS-stimulated human monocytes; IC50 range=4-8 uM; format: functional
Rattus norvegicus [6] = experiment: Inhibition of neutrophil infiltration at 100 mg/kg in rats; format: functional
Rattus norvegicus [7] = experiment: Inhibitory activity in rat colitis model at an oral dose of 10 mg/kg; IA means inactive; format: functional, organism-based; design: dose 10 mg/kg
Rattus norvegicus [8] = experiment: In vivo inhibitory activity against acetic acid-induced colitis of rat at 1 mg/kg upon peroral administration; format: functional; settings: route oral
Mus musculus [9] = species: Mus musculus; experiment: Myeloperoxidase activity was determined as a measure of neutrophil infiltration at a 0.1 mg dose in the AA treated mice; format: functional
Mus musculus [10] = species: Mus musculus; experiment: Myeloperoxidase activity was determined as a measure of neutrophil infiltration at the 0.4 mg dose in the TPA treated mice; format: functional
Mus musculus [11] = experiment: Inhibition of the AA-induced edema in mouse ear inflammation test at 1 mg; format: functional
Mononuclear cell line = experiment: In vitro inhibitory activity against interleukin-1-beta biosynthesis by isolated human mononuclear cells at 10 uM; format: functional
Rattus norvegicus [12] = species: Rattus norvegicus; experiment: Inhibition of LTB4 biosynthesis in ionophore-stimulated rat peritoneal macrophages; format: functional
Rattus norvegicus [13] = species: Rattus norvegicus; experiment: Inhibition of PGE-2 biosynthesis in ionophore stimulated rat peritoneal macrophages; format: functional
Rattus norvegicus [14] = experiment: Percent reduction of neutrophil accumulatiom with an minimum effective dose of 100 ug/kg when administered orally twice daily for two days before induction of acetic acid-induced colitis in the rat; format: functional
Rattus norvegicus [15] = experiment: Percent reduction of neutrophil accumulatiom with an minimum effective dose of 1 mg/kg when administered orally twice daily for two days before induction of acetic acid-induced colitis in the rat; format: functional; settings: route oral
Rattus norvegicus [16] = experiment: Reduction of erythema at 1 mg/kg in acetic acid-induced colitis of the rat; format: functional
Rattus norvegicus [17] = experiment: Reduction of necrosis at 1 mg/kg in acetic acid-induced colitis of the rat; format: functional
Mus musculus [18] = experiment: Inhibition of the TPA-induced edema in mouse ear inflammation test at a topical dose of 0.4 mg; format: functional
Homo sapiens [19] = species: Homo sapiens; experiment: Inhibition of LTB4 biosynthesis in human neutrophils

| IC50 [1] [nM] | IC50 (Rattus norvegicus [3]) [nM] | SMILES | inhibition (Rattus norvegicus [2]) [%] | inhibition in vivo at 10 mg/kg (Rattus norvegicus [4]) [%] | further results |
| --- | --- | --- | --- | --- | --- |
| 90 | 300 | CCCc1c(OCCCCCCCCc2cccc(O)c2O)ccc(C(=O)O)c1O |  | 35 |  |
|  | 500 | CCCc1c(OCCCCc2cccc(O)c2O)ccc(C(=O)O)c1O |  | 73 |  |
|  | 300 | CCCc1c(OCCCCCCc2cccc(O)c2O)ccc(C(=O)O)c1O |  | 89 |  |
|  | 400 | CCCc1c(OCCCCCCCCCCc2cccc(O)c2O)ccc(C(=O)O)c1O |  |  |  |
| 170 |  | CCCc1c(OCCCc2cccc(O)c2O)ccc(C(=O)O)c1O | 35 | 54 |  |

Continued, compound first:

| SMILES | IC50 [1] [nM] | IC50 (Rattus norvegicus [3]) [nM] | inhibition (Rattus norvegicus [2]) [%] | inhibition in vivo at 10 mg/kg (Rattus norvegicus [4]) [%] | further results |
| --- | --- | --- | --- | --- | --- |
| CCCc1c(OCCc2cccc(O)c2O)ccc(C(=O)O)c1O | 250 |  | 17 |  |  |
| CCCc1cc(C(=O)O)ccc1OCCCCCCc1cccc(O)c1O |  | 680 |  |  |  |
| O=C(O)c1ccc(OCCCCCCc2cccc(O)c2O)cc1 | 200 |  | 9 | 89 |  |
| CC(Cc1ccc(O)c(O)c1)C(C)Cc1ccc(O)c(O)c1 (configuration not stated) [NORDIHYDROGUAIARETIC ACID] |  | 100 |  |  | IC50 (Homo sapiens [5]): 8000 nM; inhibition in vivo at 100 mg/kg (Rattus norvegicus [6]): 70%; inhibition (Rattus norvegicus [7]): inactive |
| O=C(O)c1ccc(OCCCCCCc2cccc(O)c2O)cc1O | 300 |  | 33 |  | inhibition in vivo at 1 mg/kg (Rattus norvegicus [8]): 95% |
| CCCc1c(OCCCCCc2cccc(O)c2O)ccc(C(=O)O)c1O |  |  |  |  | Inhibition (Mus musculus [9]): 86%; Inhibition (Mus musculus [10]): 88%; Inhibition (Mus musculus [11]): 47%; inhibition at 10 µM (Mononuclear cell line): 40%; IC50 (Rattus norvegicus [12]): 600 nM; IC50 (Rattus norvegicus [13]): 35000 nM; inhibition in vivo at 1 mg/kg (Rattus norvegicus [8]): 88%; Reduction (Rattus norvegicus [14]): 38%; Reduction (Rattus norvegicus [15]): 88%; Reduction (Rattus norvegicus [16]): 55%; Reduction (Rattus norvegicus [17]): 77%; Inhibition (Mus musculus [18]): 26%; IC50 (Homo sapiens [19]): 1000 nM |
